# Assay results taken from patent US9939427B2, “Method for evaluating the scent performance of perfumes or perfume mixtures” (Symrise AG, priority 2013, dated 2018).
# Assays:
# OR4K2 = molecular target: T1, OR4K2 (Homo sapiens, UniProt Q8NGD2); assay: Ca-imaging of OR4K2-transfected HEK293 cells; assay type: cell-based; set-up: key to OR4K2 responded to odorant: ▪: 18 olfactory receptors responded to 32 odorants in related with specific anosmia
# T1 construct: specific primers, which amplify the complete open reading frame; expressed in transfected cells; host or cells: HEK293
# T1 sequence (Q8NGD2 1-314): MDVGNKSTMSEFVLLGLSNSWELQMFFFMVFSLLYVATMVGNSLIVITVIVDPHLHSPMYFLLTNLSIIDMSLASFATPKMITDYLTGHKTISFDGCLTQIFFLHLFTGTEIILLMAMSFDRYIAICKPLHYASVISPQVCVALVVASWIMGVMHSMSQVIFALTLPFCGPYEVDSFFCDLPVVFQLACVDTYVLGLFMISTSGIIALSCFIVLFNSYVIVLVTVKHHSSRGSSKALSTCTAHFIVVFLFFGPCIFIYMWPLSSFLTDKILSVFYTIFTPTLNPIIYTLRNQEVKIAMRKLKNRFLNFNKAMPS
# Experimental: HEK293 cells were cultivated in Petri dishes (Ø35 mm) as previously described (Benbernou et al. 2007). We grow up HEK293 cells in culture medium containing standard DMEM with 10% heat-inactivated fetal bovine serum, 2 mM L-glutamine, 100 units/ml penicillin, and 100 units/ml streptomycin in a humidified atmosphere (37° C., 5% CO2). After 2-3 days, the transfection process was carried out, whereby the cell culture was 70-80% confluent. The calciumphosphate method was applied to transfect DNA plasmid transiently in HEK293 cells in case of Ca-imaging method.
# Calcium cations and phosphate anions created crystal precipitations coupled with DNA which could invade into the cells through endocytosis. Cells were transiently transfected with plasmid DNA which consists of pCI expression vector and PCR-amplified full-length cDNA of olfactory receptors candidates, and also Gα15, RTP1, Myr-Ric8A, HSC70, and m-Cherry as cofactors. The precipitation could be created after 15-20 min, with dropping the transfection solution on HEK293 cells. Before measuring by Ca-imaging cells were incubated 48-60 hours at 370 C, 5% CO2. Cationic liposome-mediated transfection method was applied to transfect DNA plasmid transiently in HANA3A cells in case of CRE-Luciferase and CRE-SEAP assays.
# Calcium imaging of the transfected HEK293 cells was done by using chambers determinate an inverted microscope (Olympus; IX70) using a 10× objective (CPIanFL N Olympus). Fluorescence emission was determined every 4 s by using a CCD camera (Charge Coupled Device, C9100 Hamamatsu). The capillary tube which was responsible to supply odorants was generated closely above the cells. The columns filled with odorants, DMSO and ATP. Odorants were manually monitored to drop each 4-5 s to transfected cells. Solutions with drop wise form spread on HEK293 cells in 35 mm dishes.
# In experiments, Fura-2 Acetoxymethylester (Fura-2/AM) was applied. The non-polar Fura2/AM is fluorescent but not yet calcium-sensitive. Once diffuses into cell plasma, Fura-2/AM is hydrolyzed to Fura-2 which is calcium-sensitive and functions as Ca2+ chelator. Regardless of the presence of calcium, Fura-2 emits at the wavelength of 510 nm. Once Fura-2 binds to free intracellular Ca2+ in cell plasma, its ratio of excitation at wavelengths of 340 nm and 380 nm is changed and correlated to the amount of intracellular Ca2+. According to this feature, the analysis of 340/380 nm excitation ratio for Fura-2 allows to quantify intracellular calcium levels.
# In preparation for Ca-imaging measurements, transfected HEK293 cells were added 3 it Fura2/AM (3 μM) and incubated 30-45 min at 370 C, 5% CO2. After this step, experiments were carried out in a dark condition (Fura-2 is light-sensitive). After the incubation, medium of cell culture was replaced with 2 ml Ringer's solution.
# Odorants were freshly prepared with DMSO as 1 M stocks solutions. Six mixtures (200 μM each chemical) were applied to cells sequentially (20 s each mixture/30 s Ringer). Those ORs tested with single odorants that had generated a response to odorant mixture group previously. Odorants were prepared in 100-200 μM concentration.
# Ringer's solution was used for washing cells between measuring by two different odorants. Positive response was determined by the timing of the response, the strength of the response (more than twofold higher than the noise amplitude of the baseline), and the shape of the response curve (sharp rise in curve with gradual recovery). […]
# [1] = system: HEK293 cells transfected with all cofactors and pCI plasmids without ORs; assay: Ca-imaging of control HEK293 cells without OR; assay type: cell-based
# Procedure, shortened: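 HEK293 cells transfected by calcium phosphate with empty pCI plus Gα15, RTP1, Myr-Ric8A, HSC70 and mCherry, incubated 48–60 h, then loaded with 3 µM Fura-2/AM for 30–45 min. Odorants in Ringer's applied as mixtures at 200 µM each or singly at 100–200 µM, with 0.25 mM ATP at the end. Ca2+ followed as 340/380 nm ratio every 4 s; responses as ΔF/F0, judged by timing, amplitude above twice baseline noise and curve shape.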
# OR10Q1-614 = assay: Ca-imaging of mutant OR10Q1 in HEK293 cells; assay type: cell-based, human; conditions: 200 μM, applied for 20 seconds
# Text: Mutations were introduced for OR1B1 and OR10Q1 by Overlap Extension PCR (OEP). […] Flanking primers in combination with internal primers provided mutated gene segments, Full length primers included EcoRI and NotI restriction sites for further cloning into pCI expression vector. Site-directed mutations were selected for base of minor allele frequency of nucleotide.
# In mutagenesis by overlap extension PCR method, initial PCRs provided mutated gene segments, with overlapping complementary 3′ ends carrying desired point mutation that were then mixed and used as template for a subsequent PCR to generate the full-length product. Overlapping strands of these intermediate products hybridize at this 3′ region in a subsequent PCR and are extended to generate the full-length product amplified by flanking primers; this shown in FIG. 2. […]
# Calcium imaging of the transfected HEK293 cells was done by using chambers determinate an inverted microscope (Olympus; IX70) using a 10× objective (CPIanFL N Olympus). Fluorescence emission was determined every 4 s by using a CCD camera (Charge Coupled Device, C9100 Hamamatsu). […] Odorants were manually monitored to drop each 4-5 s to transfected cells. […]
# In experiments, Fura-2 Acetoxymethylester (Fura-2/AM) was applied. […] According to this feature, the analysis of 340/380 nm excitation ratio for Fura-2 allows to quantify intracellular calcium levels. […]
compound,measurement,setting,value
"O=C1CCCCCCCCCCCCCCO1 [Pentadecanolide, ω-cyclopentadecanolide]",OR4K2 responded to odorant,"OR4K2; HEK293 cells, individual odorant 200 μM, significant response p<0.05",▪
same,"Response of OR4K2 to odorant, in words",OR4K2; single odorants 200 μM,responded
same,"Response of control cells, in words",[1]; 200 μM (FIG. 13),did not respond
same,"Number of cell responses, Control","[1]; odorant 200 μM, three times of measuring (Table 4, FIG. 5)",2
same,Response of mutated OR10Q1 in comparison with OR10Q1 WT,OR10Q1-614,does not show any significant difference
same,Response of mutated OR10Q1 in comparison with OR10Q1 WT,OR10Q1-614; listed as pentadecalactone,did not show any difference
